Results from patent US8748600B2, “Cyclic triazo sodium channel blockers” (University of Greenwich, priority 2009, dated 2014).

How the values were obtained:
[1] = target: sodium channel (Nach); assay: Inhibition of binding of [3H]BTX-B to rat forebrain homogenates; details: extrapolated IC50; [3H]BTX-B binding
Description: Experiments were performed using forebrain (whole brain less cerebellum/medulla) from Male Wistar rats weighing 175-250 g. All efforts were made to reduce the number of animals used and all experiments were carried out in accordance with the UK Animals (Scientific Procedures) Act, 1986 and the European Community Council Directive of 24 Nov. 1986 (86/609/EEC). Following killing of animals by stunning and decapitation, the forebrain (whole brain less cerebellum/medulla) was rapidly dissected and transferred to a weighed tube containing ice-cold 0.25M sucrose.
Homogenates were prepared by transferring the known weight of forebrain to a cooled tube containing 9 volumes of ice-cold 50 mM pH 7.4 HEPES buffer. The mixture was homogenised @ 4° by 3×5 sec bursts of an Ultra-Turrax™ homogeniser set at maximum speed. The resulting homogenate was centrifuged at 40,000×g (average) at 4° for 15 min and the supernatant discarded. The resulting pellet was resuspended in 9 volumes of fresh ice-cold pH 7.4 buffer (as above), the centrifugation step was repeated and the resulting pellet resuspended in the [^3H]BTX-B binding buffer at a concentration of 20-25 mg wet weight per ml assay buffer.
Both assays were carried out using 14 ml polypropylene test tubes to which a range of concentrations of the compounds under test were added.
[^3H]BTX-B binding was carried out using the method described by Catterall et al (1981), except that both bovine serum albumin and TTX were omitted from the incubation medium.
IC50 values were obtained from radioligand displacement or guanidine flux inhibition curves by plotting log10 concentration vs bound ligand/guanidine uptake according the equation:— y=Rmin+Rsp/{1+exp [−n(x−C)]}
and • C=IC50 (i.e. concentration required to inhibit 50% of specific binding Hippocampal Slice Assay

[2] = target: T1, DiHydroFolate Reductase (DHFR) (Rattus norvegicus, UniProt Q920D2); assay: Inhibition of binding of [3H]methotrexate to rat liver homogenate supernatant (DHFR); details: read-out: DHFR (% inhibition @ 125 μm)
T1 construct: from tissue; host or cells: rat liver homogenate, 47,500 x g supernatant
T1 sequence (Q920D2 1-187): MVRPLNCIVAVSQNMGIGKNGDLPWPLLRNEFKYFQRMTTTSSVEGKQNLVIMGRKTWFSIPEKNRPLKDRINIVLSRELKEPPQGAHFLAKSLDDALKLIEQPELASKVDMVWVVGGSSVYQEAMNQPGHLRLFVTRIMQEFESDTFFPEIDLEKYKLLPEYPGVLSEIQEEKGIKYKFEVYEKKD
Description: All steps were carried out at 4° (or on ice). Freshly dissected rat liver was dissected into 0.25M ice-cold Sucrose and subsequently homogenised (U-turrax) in 50 mM pH 6.0 phosphate buffer (10 ml/g tissue) containing 15 mM Dithiothreitol. The resulting homogenate was centrifuged @ 47,500×g for 20 min and supernatant (filtered through cotton wool to remove fatty lumps) stored @-80° before use (Rothenberg et al).
Inhibition of the binding of [^3H]methotrexate to rat liver homogenate supernatant fractions were carried out essentially as described by Arons et al, 1975.

Row | Compound | IC50 [1] [µM] | inhibition at […] [2] [%]
1 | Nc1nnc(C2(c3ccccc3)CCCCC2)c(N)n1 [CEN-230] | 23 | 0
2 | COc1ccc(C2(c3nnc(N)nc3N)CCCCC2)cc1 [CEN-231] | 1 | –
3 | Nc1nnc(C2(c3ccccc3)CCCC2)c(N)n1 [CEN-232] | 5 | 100
4 | COc1ccc(C2(c3nnc(N)nc3N)CCCC2)cc1 [CEN-234] | 3 | 22
5 | Nc1nnc(C2(c3ccc(Cl)cc3Cl)CC2)c(N)n1 [CEN-235] | 8 | 63
6 | Nc1nnc(C2(c3cccc(F)c3)CCCC2)c(N)n1 [CEN-236] | 4 | 14
7 | Cc1ccc(C2(c3nnc(N)nc3N)CCCC2)cc1 [CEN-237] | < 0.5 | 70
8 | Nc1nnc(C2CC2c2ccccc2)c(N)n1 (stereo not drawn) [CEN-238] | > 190 | –
9 | Cc1ccc(C2(c3nnc(N)nc3N)CCCCC2)cc1 [CEN-239] | < 0.5 | 73
10 | Nc1nnc(C2(c3ccccc3)CC2)c(N)n1 [CEN-240] | – | 8
11 | Nc1nnc(C(Cc2ccccc2)c2ccccc2)c(N)n1 (stereo not drawn) [CEN-241] | – | 90
12 | COc1ccc(C2(c3nnc(N)nc3N)CC2)cc1 [CEN-244] | 115 | 0
13 | Nc1nnc(-c2cccc(OCc3cccc4ccccc34)c2)c(N)n1 [CEN-245] | 57 | 55
14 | Nc1nnc(C(c2ccc(F)cc2)c2ccc(F)cc2)c(N)n1 [CEN-247] | 9 | 0
